How the values were obtained:
[1] = tested on: PC-3 xenograft bearing mice; design: AUC Kidneys: unit not given beside the values; conditions: mouse, in vivo
GRPR = biological target: T1, GRPR (Homo sapiens, UniProt P30550); test: Receptor affinity and kinetics by LigandTracer on living PC-3 cells; assay type: binding
T1 construct: host or cells: PC-3 (human prostate cancer cell line)
Procedure: Receptor affinity was measured using a LigandTracer yellow (Ridgeview Instruments AB, Uppsala, Sweden). For each measurement 3 million PC-3 cells were seeded in 100 mm dishes (Corning St. Oneonta, N.Y., USA) the day before the experiment. Three concentrations for each radioligand were tested (1, 3 and 5 nM) in order to determine the association values. After reaching plateau, the media containing the radioligands were removed, fresh complete media were introduced in the plates and the dissociation phase was measured overnight.

[2] = tested on: PC-3 xenograft bearing mice; test: Biodistribution in PC-3 xenograft bearing mice; conditions: mouse, in vivo
Procedure: The biodistribution profile for the four radioligands was determined in female Balb/c nu/nu mice. All the animals were subcutaneously implanted with a suspension of 8 × 10^6 PC-3 cells in the right hind leg. After approximately 3–4 weeks, tumours were developed and animals were randomized in groups of four (with the exception of the Block groups comprising instead 3 animals). For each radioligand 3 groups were used, namely, 4 h, 23 h pi and 4 h Block. Each animal received 2.82 mg of sacubitril (in the form of 12 mg of an Entresto pill suspension) per os and after 30 min, a bolus iv injection of 100–110 kBq of [^177Lu]Lu-peptide (corresponding to 100 pmol total peptide). Animals were euthanized at the predetermined time points and tissues of interest and xenografts were collected, weighted and their activity content was measured in the gamma counter. […] Statistical analysis was performed using GraphPad Prism 10 and a two-way ANOVA with Tuckey’s post hock analysis. Area under curve for kidneys and tumours was estimated by fitting a one-phase decay model and calculating the area under the resulting equation.

tumours = conditions: ref Dumont et al. [2013], cited from earlier work
Excerpt: For [^177Lu]Lu-RM2 (Dumont et al. [2013]), the reported dose per animal was 250 pmol peptide corresponding to 4.63 MBq.

[3] = 5 min pi, ref Nock et al. [2017]; cited from earlier work
Excerpt: (§1) In comparison with [^177Lu]Lu-NeoBomb1 (Dalm et al. [2017]; Nock et al. [2017]), [^177Lu]Lu-AU-SAR-M1 utilizes a different chelator (DOTAGA for AU-SAR-M1 and DOTA for NeoBomb1).

[4] = tested on: PC-3 xenograft bearing mice; conditions: 4 h pi, ref Dalm et al. [2017], cited from earlier work
Excerpt: as §1

[5] = living PC-3 cells, 1:1 model used (footnote)

T1 sequence (P30550 whole entry): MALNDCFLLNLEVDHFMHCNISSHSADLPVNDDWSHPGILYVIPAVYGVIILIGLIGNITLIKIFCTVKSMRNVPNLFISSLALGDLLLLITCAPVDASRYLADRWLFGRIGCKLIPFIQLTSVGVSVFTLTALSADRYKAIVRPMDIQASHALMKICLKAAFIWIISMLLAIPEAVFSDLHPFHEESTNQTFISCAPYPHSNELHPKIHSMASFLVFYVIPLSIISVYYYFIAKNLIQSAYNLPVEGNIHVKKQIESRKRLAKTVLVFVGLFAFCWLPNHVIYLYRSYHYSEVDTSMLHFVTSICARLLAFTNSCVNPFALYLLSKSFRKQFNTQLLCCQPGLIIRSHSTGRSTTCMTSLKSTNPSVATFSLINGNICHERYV

For `CC(C)C[C@H](NC(=O)C[C@H](O)[C@H](CC(C)C)NC(=O)[C@H](Cc1c[nH]cn1)NC(=O)CN(C)C(=O)[C@@H](NC(=O)[C@H](C)NC(=O)[C@H](Cc1c[nH]c2ccccc12)NC(=O)[C@H](CCC(N)=O)NC(=O)[C@@H](Cc1ccccc1)NC(=O)CN1CCC(NC(=O)COCCOCCNC(=O)CCC(C(=O)O)N2CCN(CC(=O)O)CCN(CC(=O)O)CCN(CC(=O)O)CC2)CC1)C(C)C)C(N)=O` (some centres unmarked) [[^177Lu]Lu-AU-RM26-M2, DOTAGA-PEG2-Pip-[NMe-Gly^11]RM26, metal not drawn], the “AUC Kidneys” value [1] was 56 and the “AUC Tumour” value [1] was 62.

With `CCNC(=O)[C@H](CC(C)C)NC(=O)[C@H](Cc1c[nH]cn1)NC(=O)CN(C)C(=O)[C@@H](NC(=O)[C@H](C)NC(=O)[C@H](Cc1c[nH]c2ccccc12)NC(=O)[C@H](CCC(N)=O)NC(=O)[C@@H](Cc1ccccc1)NC(=O)COCC(=O)Nc1ccc(CNC(=O)CCC(C(=O)O)N2CCN(CC(=O)O)CCN(CC(=O)O)CCN(CC(=O)O)CC2)cc1)C(C)C` (some centres unmarked) [[^177Lu]Lu-AU-SAR-M1, DOTAGA-AMA-DIG-SAR, metal not drawn] the ka1 (GRPR; living PC-3 cells, 1, 3 and 5 nM, 1:2 model) was 65700 M⁻¹ s⁻¹, the ka2 (GRPR; living PC-3 cells, 1:2 model) was 614000 M⁻¹ s⁻¹ and the kd1 (GRPR; living PC-3 cells, 1:2 model) was 1.76 × 10^–6 s^−1. The kd2 (GRPR; living PC-3 cells, 1:2 model) was 7.43 × 10^–4 s^−1, the “AUC Kidneys” value [1] was 45 and the “AUC Tumour” value [1] was 242. The “AUC ratio Tumour/Kidneys” value [1] was 5.4 and the “tumour-to-kidney ratio for the estimated AUC, times better than the next candidate” value [2] was 1.4 times.

For `CCNC(=O)[C@H](CC(C)C)NC(=O)[C@H](Cc1c[nH]cn1)NC(=O)CN(C)C(=O)[C@@H](NC(=O)[C@H](C)NC(=O)[C@H](Cc1c[nH]c2ccccc12)NC(=O)[C@H](CCC(N)=O)NC(=O)[C@@H](Cc1ccccc1)NC(=O)COCC(=O)Nc1ccc(CNC(=O)[C@H](CCCNC(=N)N)NC(=O)CCC(C(=O)O)N2CCN(CC(=O)O)CCN(CC(=O)O)CCN(CC(=O)O)CC2)cc1)C(C)C` (some centres unmarked) [[^177Lu]Lu-AU-SAR-M2, DOTAGA-Arg-AMA-DIG-SAR, metal not drawn], the ka1 (GRPR; [5]) was 90900 M⁻¹ s⁻¹, the kd1 (GRPR; [5]) was 6.44 × 10^–7 s^−1 and the “AUC Kidneys” value [1] was 68. The “AUC Tumour” value [1] was 259, the “AUC ratio Tumour/Kidneys” value [1] was 3.8 and the “Tumour-to-Kidneys AUC ratio, fold higher than [^177Lu]Lu-AU-RM26-M4” value [1] was 1.6 fold. The “Tumour-to-Kidneys AUC ratio, fold higher than [^177Lu]Lu-AU-SAR-M1” value [1] was 1.4 fold.

For “DOTA-4-amino-1-carboxymethyl-piperidine-DPhe-Gln-Trp-Ala-Val-Gly-His-Sta-Leu-NH2 [[^177Lu]Lu-RM2]”, the tumour uptake (tumours; 4 h pi, 250 pmol peptide, 4.63 MBq) is listed as 10.97 ± 0.99 %IA/g, the “activity uptake in pancreas” value (tumours; 4 h pi) is listed as 0.70 ± 0.12 %IA/g and the “activity remaining in the tumours” value (tumours; 24 h pi relative to 4 h pi) is listed as “approximately 50%”.

In the case of “DOTA-AMA-DIG-DPhe-Gln-Trp-Ala-Val-Gly-His-NHCH[(CH2-CH(CH3)2]2 [[^177Lu]Lu-NeoBomb1, Lu-177-based GRPR-antagonist already tested in patients]”, the “intact peptide detected in mice circulation” value [3] is listed as 95%, the tumour values ([4]; PC-3 xenograft bearing mice, 200 pmol – 1 MBq) is listed as 17.9 ± 3.3 %IA/g and the kidneys uptake [4] is listed as 2.5%.
